This passage reports EC50 results from patent US12268694B2, “Combination pharmaceutical agents as RSV inhibitors” (Enanta Pharmaceuticals, Inc., priority 2017, dated 2025).

pEC50: −log10 of the molar value.

For the assay, the system named is genotype A, "Long" strain RSV. Put plainly: RSV-A assay: CPE protection in HEp-2 cells, ATPlite readout. The assay is classed as cell-based, human respiratory syncytial virus. Particulars: human respiratory syncytial virus, HEp-2, read-out: Human RSV-A (“Long” strain) EC50. An excerpt: HEp-2 cells, (originally derived from tumors grown in irradiated-cortisonised weanling rats that had been injected with epidermoid carcinoma tissue from a person's larynx, but later found to be indistinguishable from HeLa cells by PCR DNA analysis), were used for the culturing of genotype A, “Long” strain RSV. Flasks were inoculated with RSV and viral stocks were collected once cytopathic effect (CPE) was greater than 90%. Viral stocks in 25% sucrose media were snap frozen using liquid nitrogen to increase viral stability. Viral stock titers were quantified by tissue culture infectious dose 50% (TCID50) using 8,000 cells per well and 3-fold viral dilutions across a 96-well plate, cultured for 4 days. Viral stock titers were also quantified by a plaque forming unit assay, as described elsewhere.
Following extensive parameter testing, the final assay is run as follows: HEp-2 cells are seeded into the inner 60 wells of a 96-well plate at 8,000 cells per well in a volume of 50 μL using Growth Media (DMEM without phenol red, 1% L-Glut, 1% Penn/Strep, 1% nonessential amino acids, 10% heat-inactivated FBS). 2-fold serial dilutions of control and test compounds are added to the wells in duplicate in a total volume of 25 μL. Viral stock is then added to the wells at a multiplicity of infection (MOI) of 0.1 in a volume of 25 μL, bringing the total volume of each well to 100 μL. The MOI is calculated using the PFU/mL, or TCID50 if unavailable. Each 96-well plate has a control column of 6 wells with cells and virus but no compound (negative control, max CPE), a column with cells but no compound or virus (positive control, minimum CPE), and a column with no cells or virus or compound (background plate/reagent control). The control wells with cells but no virus are given an additional 25 μL of growth media containing an equal quantity of sucrose as those wells receiving the viral stock in order to keep consistent in media and volume conditions. The outer wells of the plate are filled with 125 μL of moat media (DMEM, 1% Penn/Strep) to act as a thermal and evaporative moat around the test wells. Following a 5-day incubation period, the plates are read using ATPlite (50 μL added per well), which quantifies the amount of ATP (a measure of cell health) present in each well. Assay plates are read using the Envision luminometer. In parallel, cytotoxicity is examined on an additional 96-well plate treated in an identical manner, but substituting the 25 μL of viral stock for 25 μL of growth media. […] EC50 ranges are as follows: A <0.4 μM; B 0.4-0.8 μM; C >0.8 μM and CC50 ranges are as follows: A >50 μM; B 10-50 μM; C <10 μM.
In general, pEC50 refers to −log10 of the EC50, conventionally taken in molar units. `O=C1Nc2ccccc2C(c2ccccc2)=NC1Nc1ccc(-c2ccc(F)cc2)nn1` (centres unmarked) [Example 374]: the pEC50 was less than 6.10.

Turning to `O=C1Nc2ccccc2C(c2ccccc2)=N[C@@H]1Nc1nnc(-c2cn(-c3ccc(F)cn3)nc2N2CCOCC2)o1` [Example 448], the pEC50 is more than 6.40.

Take `O=C1Nc2ccccc2C(c2ccccc2)=N[C@@H]1Nc1nnc(-c2cnc(-n3cncn3)nc2N2CCOCC2)o1` [Example 173]: the pEC50 is less than 6.10.

Consider `O=C1Nc2ccccc2C(c2ccccc2)=N[C@@H]1Nc1nnc(-c2cnc(N3CC4CCC(C3)O4)nc2)o1` [Example 166], for which the pEC50 is less than 6.10.

Turning to `Cc1nc(-c2nnc(N[C@H]3N=C(c4ccccc4)c4ccccc4NC3=O)o2)c(Cl)s1` [Example 344], the pEC50 is less than 6.10.

`CC(C)(O)c1nc(-c2nnc(N[C@H]3N=C(c4ccccc4)c4ccccc4NC3=O)o2)c(N2CCOCC2)s1` [Example 437]: the pEC50 is more than 6.40.

For the compound `O=C1Nc2ccccc2C(c2ccccc2)=NC1Nc1nnc(-c2cccc(-n3ccnc3)c2)o1` (centres unmarked) [Example 212], the pEC50 was less than 6.10.

Consider `O=C1Nc2ccccc2C(c2ccccc2)=NC1Nc1nnc(-c2ccc(OC3CCOCC3)cc2)o1` (centres unmarked) [Example 220], for which the pEC50 was less than 6.10.

As to `CC(C)(Cc1ccccc1)c1nnc(NC2N=C(c3ccccc3)c3ccccc3NC2=O)o1` (centres unmarked) [Example 208], the pEC50 was less than 6.10.

Take `O=C1Nc2ccccc2C(c2ccccc2)=NC1Nc1nnc(-c2ccc(-n3ccnc3)cc2)o1` (centres unmarked) [Example 231]: the pEC50 is more than 6.40.

In the case of `COc1ccc2nccc(-c3nnc(N[C@H]4N=C(c5ccccc5)c5ccccc5NC4=O)o3)c2c1` [Example 408], the pEC50 was less than 6.10.

On to `O=C1Nc2ccccc2C(c2ccccc2)=N[C@@H]1Nc1nnc(-c2ncc(C(F)(F)F)cc2N[C@H]2CCC[C@H]2O)o1` [Example 422], for which the pEC50 is 6.10 to 6.40.

For `O=C1Nc2ccccc2C(c2ccccc2)=NC1Nc1nnc(-c2nccnc2N2CCOCC2)o1` (centres unmarked) [Example 143], the pEC50 was more than 6.40.

With `O=C1Nc2ccccc2C(c2ccccc2)=N[C@@H]1Nc1nnc(-c2ccc(F)cc2N2CC3CCC(C2)O3)o1` [Example 288], the pEC50 was 6.10 to 6.40.

Take `Cc1nsc(N2CCOCC2)c1-c1nnc(N[C@H]2N=C(c3ccccc3)c3ccccc3NC2=O)o1` [Example 465]: the pEC50 is 6.10 to 6.40.

On to `O=C1Nc2ccccc2C(c2ccccc2)=NC1Nc1nnc([C@@H]2CCCN2C2CCNCC2)o1` (some centres unmarked) [Example 227], for which the pEC50 was less than 6.10.

Take `N#Cc1ccc(-c2nnc(N[C@H]3N=C(c4ccccc4)c4ccccc4NC3=O)o2)c(N2C3CCC2COC3)c1` [Example 289]: the pEC50 is more than 6.40.

With `O=C1Nc2ccccc2C(c2ccccc2)=N[C@@H]1Nc1nnc(-c2cnc(C(F)(F)F)nc2N2CC3CCC(C2)O3)o1` [Example 290], the pEC50 is less than 6.10.

Turning to `N#Cc1cccc(C2=NC(Nc3nnc(-c4ccc(F)cc4)o3)C(=O)Nc3ccccc32)c1` (centres unmarked) [Example 381], the pEC50 was less than 6.10.

In the case of `Cc1nc2ccc(-c3nnc(NC4N=C(c5ccccc5)c5ccccc5NC4=O)o3)cc2s1` (centres unmarked) [Example 187], the pEC50 is 6.10 to 6.40.

As for `O=C1Nc2ccccc2C(c2ccccc2)=NC1Nc1nnc(-c2ccccc2-n2cccn2)o1` (centres unmarked) [Example 283], the negative logarithm of the EC50 (pEC50) was less than 6.10.

Turning to `COCCCc1sc(C(F)(F)F)nc1-c1nnc(N[C@H]2N=C(c3ccccc3)c3ccccc3NC2=O)o1` [Example 396], the pEC50 was less than 6.10.

In the case of `CC(C)(c1nc(-c2nnc(N[C@H]3N=C(c4ccccc4)c4ccccc4NC3=O)o2)c(N2CCOCC2)s1)N1CCOCC1` [Example 459], the pEC50 is more than 6.40.

In the case of `CC1(C)CC(c2nnc(NC3N=C(c4ccccc4)c4ccccc4NC3=O)o2)C1` (centres unmarked) [Example 206], the pEC50 was less than 6.10.

Consider `O=C1Nc2ccccc2C(c2ccccc2)=N[C@@H]1Nc1nnc(-c2ncsc2C2=CCOCC2)o1` [Example 347], for which the negative logarithm of the EC50 (pEC50) was more than 6.40.

`O=C1Nc2ccccc2C(c2ccccc2)=NC1Nc1nnc(-c2cccnc2N2CCC(F)CC2)o1` (centres unmarked) [Example 256]: the negative logarithm of the EC50 (pEC50) is less than 6.10.

Turning to `O=C1Nc2ccccc2C(c2ccccc2)=NC1Nc1cc(N2CCOCC2)cnn1` (centres unmarked) [Example 463], the negative logarithm of the EC50 (pEC50) is less than 6.10.

Turning to `O=C1Nc2ccccc2C(c2ccccc2)=N[C@@H]1Nc1nnc(-c2ccccc2N2CCOCC2)o1` [Example 125a], the pEC50 was more than 6.40.

`O=C1Nc2ccccc2C(c2ccccc2)=N[C@@H]1Nc1nnc(-c2oc3cc(F)ccc3c2N2CCOCC2)o1` [Example 476]: the pEC50 was 6.10 to 6.40.

Consider `Cc1ccc(-c2nnc(N[C@H]3N=C(c4ccccc4)c4ccccc4NC3=O)o2)c(N2CCOC[C@H]2C)n1` [Example 286], for which the pEC50 is more than 6.40.

For `O=C1Nc2ccccc2C(c2ccccc2)=NC1Nc1nnc(C2CC3(CCNCC3)C2)o1` (centres unmarked) [Example 222], the pEC50 was less than 6.10.

Regarding `O=C1Nc2ccccc2C(c2ccccc2)=N[C@@H]1Nc1nnc(-c2cnn(-c3ccccc3)c2)o1` [Example 350], the pEC50 was 6.10 to 6.40.

For `N#Cc1ccc(-c2nnc(N[C@H]3N=C(c4ccccc4)c4ccccc4NC3=O)o2)c(N2CC3CCC(C2)O3)c1` [Example 281], the pEC50 is more than 6.40.

For `O=C1Nc2ccccc2C(c2ccccc2)=N[C@@H]1Nc1nnc(-c2ncc(C(F)(F)F)cc2NCc2ccco2)o1` [Example 421], the pEC50 is less than 6.10.

Regarding `O=C1Nc2ccccc2C(c2ccccc2)=N[C@@H]1Nc1nnc(-c2nc(C3CC3)ccc2N2CCOCC2)o1` [Example 318], the pEC50 is more than 6.40.

Turning to `O=C1Nc2ccccc2C(c2ccccc2)=N[C@@H]1Nc1nnc(-c2ncc(C(F)(F)F)cc2N[C@H]2CCOC2)o1` [Example 470], the pEC50 is less than 6.10.

Consider `CN(c1nnc(-c2ccc(F)cc2)o1)C1N=C(c2ccccc2)c2ccccc2NC1=O` (centres unmarked) [Example 209], for which the pEC50 is less than 6.10.

As to `O=C1Nc2ccccc2C(c2ccccc2)=N[C@@H]1Nc1nnc(-c2nc(-c3ccc(C(F)(F)F)nc3)sc2N2CCOCC2)o1` [Example 390], the pEC50 was more than 6.40.

`COc1ccc(CN2C(=O)C(C)(N)N=C(c3ccccc3)c3ccccc32)cc1` (centres unmarked) [Example 102]: the pEC50 is less than 6.10.

On to `O=C1Nc2ccccc2C(c2ccccc2)=NC1Nc1nnc(-c2ccc(-n3ccc(C(F)(F)F)n3)cc2)o1` (centres unmarked) [Example 202], for which the pEC50 was less than 6.10.

With `Cc1cc(-n2cncn2)ccc1-c1nnc(NC2N=C(c3ccccc3)c3ccccc3NC2=O)o1` (centres unmarked) [Example 218], the pEC50 was less than 6.10.

For `O=C1Nc2ccccc2C(c2cccc(F)c2)=NC1Nc1nnc(-c2ccc(F)cc2)o1` (centres unmarked) [Example 380], the negative logarithm of the EC50 (pEC50) was 6.10 to 6.40.

In the case of `O=C1Nc2ccccc2C(c2ccccc2)=N[C@H]1Nc1nnc(-c2ccc(N3CCOCC3)cc2)o1` [Example 124b], the pEC50 was less than 6.10.

Regarding `O=C1Nc2ccccc2C(c2ccccc2)=N[C@@H]1Nc1nnc(-c2nc(C3CCCCC3)sc2N2CCOCC2)o1` [Example 405], the pEC50 was more than 6.40.

`O=C1Nc2ccccc2C(c2ccccc2)=NC1Nc1nnc(C2CC2)[nH]1` (centres unmarked) [Example 372]: the pEC50 is less than 6.10.

`N#CCCc1nnc(NC2N=C(c3ccccc3)c3ccccc3NC2=O)o1` (centres unmarked) [Example 193]: the pEC50 was less than 6.10.

Take `O=C1Nc2ccccc2C(c2ccccc2)=N[C@@H]1Nc1nnc(-c2cnc(N3CCOCC3)cn2)o1` [Example 161]: the pEC50 was less than 6.10.

Turning to `COCC(C)(C)Nc1cc(C(F)(F)F)cnc1-c1nnc(N[C@H]2N=C(c3ccccc3)c3ccccc3NC2=O)o1` [Example 414], the pEC50 was less than 6.10.

On to `O=C1Nc2ccccc2C(c2ccccc2)=NC1Nc1nnc(-c2ccc(N3CCOCC3)nc2)o1` (centres unmarked) [Example 115], for which the pEC50 was more than 6.40.

With `COC(C)(C)CNc1cc(C(F)(F)F)cnc1-c1nnc(N[C@H]2N=C(c3ccccc3)c3ccccc3NC2=O)o1` [Example 416], the pEC50 was less than 6.10.

Turning to `Cc1nc(-c2nnc(NC3N=C(c4ccccc4)c4ccccc4NC3=O)o2)ccc1C#N` (centres unmarked) [Example 200], the negative-log EC50 (pEC50) was 6.10 to 6.40.

Turning to `O=C1Nc2ccccc2C(c2ccccc2)=NC1Nc1nnc(-c2ccccc2-c2ccncc2)o1` (centres unmarked) [Example 226], the pEC50 is less than 6.10.

Consider `O=C1Nc2ccccc2C(c2ccccc2F)=NC1Nc1nnc(-c2ccc(F)cc2)o1` (centres unmarked) [Example 379], for which the pEC50 was less than 6.10.

As for `N#Cc1cnc(-c2nnc(NC3N=C(c4ccccc4)c4ccccc4NC3=O)o2)c(N2CCOCC2)c1` (centres unmarked) [Example 140], the pEC50 was more than 6.40.

For `O=C1Nc2ccccc2C(c2ccccc2)=N[C@@H]1Nc1nnc(-c2nc(C3(O)CCC3)sc2N2CCOCC2)o1` [Example 455], the pEC50 is more than 6.40.

On to `O=C1Nc2ccccc2C(c2ccccc2)=N[C@@H]1Nc1nnc(-c2cn(-c3ccc(C(F)(F)F)cn3)nc2N2CCOCC2)o1` [Example 440], for which the pEC50 was 6.10 to 6.40.
